Where two headings read alike, the source gives them in different places.
Tests used:
FGFR1 = FGFR1 (Homo sapiens (Human), UniProt P11362); test: FGFR Enzymatic Assay (FGFR1); type: biochemical; details: enzyme 0.02 nM, ATP 210 μM
Experimental: (§1) The inhibitor potency of compounds was measured in an enzyme assay that measures peptide phosphorylation using FRET measurements to detect product formation. Inhibitors were serially diluted in DMSO and a volume of 0.5 μL was transferred to the wells of a 384-well plate. For FGFR3, a 10 μL volume of FGFR3 enzyme (Millipore) diluted in assay buffer (50 mM HEPES, 10 mM MgCl2, 1 mM EGTA, 0.01% Tween-20, 5 mM DTT, pH 7.5) was added to the plate and pre-incubated for 5-10 minutes. Appropriate controls (enzyme blank and enzyme with no inhibitor) were included on the plate. […] The plate was incubated at 25° C. for 1 hr. […] The plate was allowed to equilibrate for ˜1 hr before scanning the wells on a PheraStar plate reader.
(§2) GraphPad prism3 was used to analyze the data. The IC50 values were derived by fitting the data to the equation for a sigmoidal dose-response with a variable slope. Y=Bottom+(Top−Bottom)/(1+10^((Log IC50−X)*HillSlope)) where X is the logarithm of concentration and Y is the response.

FGFR2 = FGFR2 (Homo sapiens (Human), UniProt P21802); test: FGFR Enzymatic Assay (FGFR2); type: biochemical;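 note: FRET read-out of peptide phosphorylation by the purified kinase, with enzyme-free blank and uninhibited enzyme as controls, potency from a variable-slope sigmoidal dose-response fit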
Sequence of FGFR2 (P21802 22-821): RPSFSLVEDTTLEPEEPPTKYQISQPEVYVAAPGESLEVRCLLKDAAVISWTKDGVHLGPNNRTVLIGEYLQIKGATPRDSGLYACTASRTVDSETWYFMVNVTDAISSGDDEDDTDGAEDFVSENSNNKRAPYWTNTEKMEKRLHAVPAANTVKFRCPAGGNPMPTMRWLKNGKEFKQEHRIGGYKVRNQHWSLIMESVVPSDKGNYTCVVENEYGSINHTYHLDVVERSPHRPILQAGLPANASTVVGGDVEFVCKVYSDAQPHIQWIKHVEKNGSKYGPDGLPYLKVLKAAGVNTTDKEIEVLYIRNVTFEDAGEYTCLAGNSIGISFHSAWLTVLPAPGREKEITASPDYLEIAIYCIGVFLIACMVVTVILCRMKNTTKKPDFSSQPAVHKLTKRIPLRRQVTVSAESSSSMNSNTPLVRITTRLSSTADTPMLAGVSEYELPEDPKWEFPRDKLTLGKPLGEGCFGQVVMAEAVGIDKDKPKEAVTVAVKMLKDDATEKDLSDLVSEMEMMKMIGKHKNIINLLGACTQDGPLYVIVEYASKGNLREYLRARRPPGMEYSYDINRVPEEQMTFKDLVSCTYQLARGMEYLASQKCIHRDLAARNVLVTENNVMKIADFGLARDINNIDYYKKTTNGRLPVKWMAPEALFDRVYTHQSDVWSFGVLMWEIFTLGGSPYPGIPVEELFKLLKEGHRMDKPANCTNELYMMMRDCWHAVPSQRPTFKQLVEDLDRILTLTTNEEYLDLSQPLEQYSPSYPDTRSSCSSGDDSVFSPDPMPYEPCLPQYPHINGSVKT
Experimental: as §1, §2

FGFR3 enzyme (Millipore) = FGFR3 enzyme (Millipore) (Homo sapiens (Human), UniProt P22607); test: biochemical
Sequence of FGFR3 enzyme (Millipore) (P22607 23-806): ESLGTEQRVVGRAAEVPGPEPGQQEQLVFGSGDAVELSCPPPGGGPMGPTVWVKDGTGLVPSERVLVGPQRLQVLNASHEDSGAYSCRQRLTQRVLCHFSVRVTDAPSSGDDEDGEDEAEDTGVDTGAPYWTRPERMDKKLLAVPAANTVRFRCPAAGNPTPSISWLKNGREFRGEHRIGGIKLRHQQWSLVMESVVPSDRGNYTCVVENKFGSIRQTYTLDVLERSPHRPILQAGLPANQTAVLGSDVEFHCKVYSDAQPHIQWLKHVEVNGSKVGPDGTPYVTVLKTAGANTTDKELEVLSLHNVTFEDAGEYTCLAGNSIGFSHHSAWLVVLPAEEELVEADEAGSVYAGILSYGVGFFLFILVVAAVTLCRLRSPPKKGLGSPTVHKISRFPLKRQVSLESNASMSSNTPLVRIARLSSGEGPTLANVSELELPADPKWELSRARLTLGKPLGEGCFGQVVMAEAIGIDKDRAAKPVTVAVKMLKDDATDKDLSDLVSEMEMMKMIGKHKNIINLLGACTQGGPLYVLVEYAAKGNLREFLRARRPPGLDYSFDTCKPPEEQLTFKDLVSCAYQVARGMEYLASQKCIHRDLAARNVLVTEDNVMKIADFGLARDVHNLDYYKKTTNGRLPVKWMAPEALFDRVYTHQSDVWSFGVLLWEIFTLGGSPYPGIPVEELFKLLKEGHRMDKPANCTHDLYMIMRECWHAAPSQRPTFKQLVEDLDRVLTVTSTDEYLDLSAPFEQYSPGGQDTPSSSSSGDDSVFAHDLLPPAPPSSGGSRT

[1] = enzyme 0.01 nM, ATP 100 μM, read-out: FGFR2 IC50

Sequence of FGFR1 (P11362 22-822): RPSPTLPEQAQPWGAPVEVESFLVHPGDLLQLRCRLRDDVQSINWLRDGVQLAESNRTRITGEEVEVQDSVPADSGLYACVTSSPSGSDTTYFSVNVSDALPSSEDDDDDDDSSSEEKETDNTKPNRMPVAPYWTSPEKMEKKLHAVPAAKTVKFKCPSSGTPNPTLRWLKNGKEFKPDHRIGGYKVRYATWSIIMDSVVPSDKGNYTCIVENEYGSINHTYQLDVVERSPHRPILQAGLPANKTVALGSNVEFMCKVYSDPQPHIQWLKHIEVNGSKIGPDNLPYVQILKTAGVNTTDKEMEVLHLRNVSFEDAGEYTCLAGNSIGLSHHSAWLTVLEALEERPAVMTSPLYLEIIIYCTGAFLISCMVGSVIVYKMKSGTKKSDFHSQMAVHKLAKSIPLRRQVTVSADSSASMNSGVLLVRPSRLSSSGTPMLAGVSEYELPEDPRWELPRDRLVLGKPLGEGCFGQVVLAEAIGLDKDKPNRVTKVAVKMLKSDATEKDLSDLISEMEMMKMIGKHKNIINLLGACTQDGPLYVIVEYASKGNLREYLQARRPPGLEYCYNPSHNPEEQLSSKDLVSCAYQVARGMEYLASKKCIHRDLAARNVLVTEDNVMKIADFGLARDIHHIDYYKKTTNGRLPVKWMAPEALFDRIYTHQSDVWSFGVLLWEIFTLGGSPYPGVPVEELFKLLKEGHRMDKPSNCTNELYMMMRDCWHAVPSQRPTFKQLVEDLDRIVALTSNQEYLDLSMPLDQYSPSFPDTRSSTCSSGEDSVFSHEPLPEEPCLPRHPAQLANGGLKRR

Row | SMILES | IC50 (FGFR1) [nM] | IC50 (FGFR2; [1]) [nM] | IC50 (FGFR3 enzyme (Millipore)) [nM] | IC50 (FGFR2) [nM]
1 | COc1cc(CCc2cnc3[nH]c(-c4ccc(F)c(C(=O)N(C)C)c4)cc3n2)cc(OC)c1 [Example 54, 5-(2-(3,5-Dimethoxyphenethyl)-5H-pyrrolo[2,3-b]pyrazin-6-yl)-2-fluoro-N,N-dimethylbenzamide] | < 100 | < 100 | 100 to 500 | –
2 | COc1cc(CCc2cnc3[nH]c(-c4ccc5[nH]ncc5c4)cc3n2)cc(OC)c1 [Example 70, 2-(3,5-Dimethoxyphenethyl)-6-(1H-indazol-5-yl)-5H-pyrrolo[2,3-b]pyrazine] | < 100 | < 100 | 100 to 500 | –
3 | COc1cc(CCc2cnc3[nH]c(-c4ccc(C(=O)N(C)C)cc4)cc3n2)cc(OC)c1 [Example 7, 4-{2-[2-(3,5-dimethoxyphenyl)ethyl]-5H-pyrrolo[2,3-b]pyrazin-6-yl}-N,N-dimethylbenzamide] | < 100 | < 100 | 100 to 500 | –
4 | COc1cc(CCc2cnc3[nH]c(-c4cnn(CC(=O)N(C)C)c4)cc3n2)cc(OC)c1 [Example 43, 2-(4-{2-[2-(3,5-dimethoxyphenyl)ethyl]-5H-pyrrolo[2,3-b]pyrazin-6-yl}-1H-pyrazol-1-yl)-N,N-dimethylacetamide] | < 100 | < 100 | 100 to 500 | –
5 | CNC(=O)c1ccc(-c2cc3nc(CCc4cc(OC)cc(OC)c4)cnc3[nH]2)cn1 [Example 17, 5-{2-[2-(3,5-dimethoxyphenyl)ethyl]-5H-pyrrolo[2,3-b]pyrazin-6-yl}-N-methylpyridine-2-carboxamide] | < 100 | < 100 | 100 to 500 | –
6 | COc1cc(CCc2cnc3[nH]c(-c4cncc(C(=O)N5CCOCC5)c4)cc3n2)cc(OC)c1 [Example 18, 2-[2-(3,5-dimethoxyphenyl)ethyl]-6-[5-(morpholin-4-ylcarbonyl)pyridin-3-yl]-5H-pyrrolo[2,3-b]pyrazine] | < 100 | < 100 | 500 to 2700 | –
7 | COc1cc(CCc2cnc3[nH]c(-c4ccccc4C#N)cc3n2)cc(OC)c1 [Example 10, 2-{2-[2-(3,5-dimethoxyphenyl)ethyl]-5H-pyrrolo[2,3-b]pyrazin-6-yl}benzonitrile] | < 100 | < 100 | 500 to 2700 | –
8 | COc1cc(CCc2cnc3[nH]c(-c4ccnc(C#N)c4)cc3n2)cc(OC)c1 [Example 60, 4-(2-(3,5-Dimethoxyphenethyl)-5H-pyrrolo[2,3-b]pyrazin-6-yl)picolinonitrile] | < 100 | < 100 | 100 to 500 | –
9 | COc1cc(CCc2cnc3[nH]c(-c4cnn(CCN5CCN(C)CC5)c4)cc3n2)cc(OC)c1 [Example 42, 2-[2-(3,5-dimethoxyphenyl)ethyl]-6-{1-[2-(4-methylpiperazin-1-yl)ethyl]-1H-pyrazol-4-yl}-5H-pyrrolo[2,3-b]pyrazine] | < 100 | < 100 | 100 to 500 | –
10 | COc1cc(CCc2cnc3[nH]c(-c4ccc(CC#N)cc4)cc3n2)cc(OC)c1 [Example 14, (4-{2-[2-(3,5-dimethoxyphenyl)ethyl]-5H-pyrrolo[2,3-b]pyrazin-6-yl}phenyl)acetonitrile] | < 100 | < 100 | 100 to 500 | –
11 | COc1cc(CCc2cnc3[nH]c(-c4ccccc4C)cc3n2)cc(OC)c1 [Example 9, 2-[2-(3,5-dimethoxyphenyl)ethyl]-6-(2-methylphenyl)-5H-pyrrolo[2,3-b]pyrazine] | < 100 | – | 500 to 2700 | 100 to 500
12 | COc1cc(CCc2cnc3[nH]c(-c4ccc(N5CCN(C)CC5)nc4)cc3n2)cc(OC)c1 [Example 16, 2-[2-(3,5-dimethoxyphenyl)ethyl]-6-[6-(4-methylpiperazin-1-yl)pyridin-3-yl]-5H-pyrrolo[2,3-b]pyrazine] | < 100 | < 100 | 100 to 500 | –
13 | COc1cc(CCc2cnc3[nH]c(-c4ccc(NC(C)=O)cc4)cc3n2)cc(OC)c1 [Example 6, N-(4-{2-[2-(3,5-dimethoxyphenyl)ethyl]-5H-pyrrolo[2,3-b]pyrazin-6-yl}phenyl)acetamide] | < 100 | < 100 | 100 to 500 | –

Source: US9745311B2, “Substituted pyrrolo[2,3-b]pyrazines as FGFR inhibitors” (Incyte Corporation, priority 2012, dated 2017)
